Test results taken from patent US20260138978A1, “POSITIVE ALLOSTERIC MODULATORS OF THE MUSCARINIC ACETYLCHOLINE RECEPTOR M1” (Vanderbilt University, priority 2022, published 2026).

Tests used:
[1] = target: T1, human mAChRM1 (Homo sapiens, UniProt P11229); assay: mAChR M1 cell-based functional assay (calcium mobilization), agonist activity upon compound addition, Emax relative to acetylcholine maximum; details: for Agonist Activity Human M1 EC50 / EC50: calcium mobilization upon compound addition; for Emax: relative to the maximum for acetylcholine
T1 construct: host or cells: CHO-K1
T1 sequence (P11229 1-460): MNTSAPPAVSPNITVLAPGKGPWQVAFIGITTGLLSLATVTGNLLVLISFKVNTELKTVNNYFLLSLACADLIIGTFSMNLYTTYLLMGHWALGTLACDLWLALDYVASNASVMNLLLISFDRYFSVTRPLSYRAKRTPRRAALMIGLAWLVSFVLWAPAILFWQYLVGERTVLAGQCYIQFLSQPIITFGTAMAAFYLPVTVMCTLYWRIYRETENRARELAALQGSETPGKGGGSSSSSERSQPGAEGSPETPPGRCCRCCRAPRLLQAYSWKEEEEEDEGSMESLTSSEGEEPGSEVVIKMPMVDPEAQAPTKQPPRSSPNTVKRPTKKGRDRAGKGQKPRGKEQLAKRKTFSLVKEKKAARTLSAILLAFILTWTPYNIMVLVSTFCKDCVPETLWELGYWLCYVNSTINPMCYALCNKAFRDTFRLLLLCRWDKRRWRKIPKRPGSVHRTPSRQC
Method in brief: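 CHO-K1 cells stably expressing human M1 were loaded with Fluo-4 AM for 50 min at 37 °C. Compound was added 4 s into a 300 s FDSS read at 1 Hz, over 11-point 1:3 dilution curves. Agonism was taken as a concentration-dependent rise in calcium fluorescence ratio, with Emax expressed relative to the acetylcholine maximum from four-parameter logistic fits.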

[2] = target: T1, human mAChRM1; assay: mAChR M1 cell-based functional assay (calcium mobilization), positive allosteric modulator activity: increase in the EC20 acetylcholine response; details: for Emax: PAM mode; for EC50: increase in the EC20 acetylcholine response, read-out: PAM Activity Human M1 EC50
Method in brief: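 CHO-K1 cells stably expressing human M1, loaded with Fluo-4 AM; calcium flux recorded on FDSS at 1 Hz over 300 s following compound addition. PAM activity is the concentration-dependent increase of an EC20 acetylcholine response; EC50 and Emax from four-parameter logistic fits of 11-point, 1:3 concentration series.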

For `Cn1cc2c(-c3cc(F)c(CN4Cc5ncccc5C4=O)c(F)c3)ccc(C(C)(O)C(F)F)c2n1` (stereo not drawn) [Compound 100, 6-(4-(7-(1,1-difluoro-2-hydroxypropan-2-yl)-2-methyl-2H-indazol-4-yl)-2,6-difluorobenzyl)-6,7-dihydro-5H-pyrrolo[3,4-b]pyridin-5-one], the “Agonist Activity Human M1 EC50” value [1] was “inactive”, the Emax [2] was 88% and the EC50 [2] was 211 nM.

`Cn1cc2c(-c3cc(F)c(CN4Cc5ncccc5C4=O)c(F)c3)ccc(C3(O)CCC(C#N)CC3)c2n1` (stereo not drawn) [Compound 101, 4-(4-(3,5-difluoro-4-((5-oxo-5,7-dihydro-6H-pyrrolo[3,4-b]pyridin-6-yl)methyl)phenyl)-2-methyl-2H-indazol-7-yl)-4-hydroxycyclohexane-1-carbonitrile] was tested, and the “Agonist Activity Human M1 EC50” value [1] was “inactive”, the Emax [2] was 86% and the EC50 [2] was 222 nM.

`CC[C@@](C)(O)c1ccc(-c2cc(F)c(CN3Cc4ncccc4C3=O)c(F)c2)c2cn(C)nc12` [Compound 102, (R)-6-(2,6-difluoro-4-(7-(2-hydroxybutan-2-yl)-2-methyl-2H-indazol-4-yl)benzyl)-6,7-dihydro-5H-pyrrolo[3,4-b]pyridin-5-one] was tested, and the “Agonist Activity Human M1 EC50” value [1] was “inactive”, the Emax [2] was 85% and the EC50 [2] was 359 nM.

`CC[C@](C)(O)c1ccc(-c2cc(F)c(CN3Cc4ncccc4C3=O)c(F)c2)c2cn(C)nc12` [Compound 103, (S)-6-(2,6-difluoro-4-(7-(2-hydroxybutan-2-yl)-2-methyl-2H-indazol-4-yl)benzyl)-6,7-dihydro-5H-pyrrolo[3,4-b]pyridin-5-one] showed an EC50 [1] of 4230 nM, an Emax [1] of 11% and an Emax [2] of 87%. It also gave an EC50 [2] of 254 nM.

In the case of `CC(C)n1cc2c(-c3cc(F)c(CN4Cc5ncccc5C4=O)c(F)c3)ccc(C(C)(C)O)c2n1` [Compound 104, 6-(2,6-difluoro-4-(7-(2-hydroxypropan-2-yl)-2-isopropyl-2H-indazol-4-yl)benzyl)-6,7-dihydro-5H-pyrrolo[3,4-b]pyridin-5-one], the “Agonist Activity Human M1 EC50” value [1] is reported as “inactive”, the Emax [2] is reported as 86% and the EC50 [2] is reported as 284 nM.

`Cn1cc2c(-c3cc(F)c(CN4Cc5ncccc5C4=O)c(F)c3)ccc(C3(O)CC(F)(F)C3)c2n1` [Compound 105, 6-(4-(7-(3,3-difluoro-1-hydroxycyclobutyl)-2-methyl-2H-indazol-4-yl)-2,6-difluorobenzyl)-6,7-dihydro-5H-pyrrolo[3,4-b]pyridin-5-one] was tested, and the EC50 [1] was over 10000 nM, the Emax [1] was 15% and the Emax [2] was 72%. For the same compound, the EC50 [2] was 780 nM.

With `Cn1cc2c(-c3cc(F)c(CN4Cc5c(F)cccc5C4=O)c(F)c3)ccc(C(C)(C)O)c2n1` [Compound 106, 2-(2,6-difluoro-4-(7-(2-hydroxypropan-2-yl)-2-methyl-2H-indazol-4-yl)benzyl)-4-fluoroisoindolin-1-one] the “Agonist Activity Human M1 EC50” value [1] was “inactive”, the Emax [2] was 59% and the EC50 [2] was 4680 nM.

Work on `CC(C)(O)c1cc2c(-c3cc(F)c(CN4Cc5ncccc5C4=O)c(F)c3)cccn2n1` [Compound 107, 6-(2,6-difluoro-4-(2-(2-hydroxypropan-2-yl)pyrazolo[1,5-a]pyridin-4-yl)benzyl)-6,7-dihydro-5H-pyrrolo[3,4-b]pyridin-5-one] yielded an EC50 [1] of at least 10000 nM, an Emax [1] of 12% and an Emax [2] of 77%. For the same compound, the EC50 [2] was 2790 nM.

With `CC(C)(O)c1cc2cc(-c3cc(F)c(CN4Cc5ncccc5C4=O)c(F)c3)ccn2n1` [Compound 108, 6-(2,6-difluoro-4-(2-(2-hydroxypropan-2-yl)pyrazolo[1,5-a]pyridin-5-yl)benzyl)-6,7-dihydro-5H-pyrrolo[3,4-b]pyridin-5-one] the “Agonist Activity Human M1 EC50” value [1] was “inactive”, the Emax [2] was 70% and the EC50 [2] was 1800 nM.

`Cn1cc2c(-c3cnc(CN4Cc5ncccc5C4=O)cn3)ccc(C(C)(C)O)c2n1` [Compound 109, 6-((5-(7-(2-hydroxypropan-2-yl)-2-methyl-2H-indazol-4-yl)pyrazin-2-yl)methyl)-6,7-dihydro-5H-pyrrolo[3,4-b]pyridin-5-one] was tested, and the “Agonist Activity Human M1 EC50” value [1] was “inactive”, the Emax [2] was 70% and the EC50 [2] was at least 10000 nM.

For `Cn1cc2c(-c3cnc(CN4Cc5ncccc5C4=O)nc3)ccc(C(C)(C)O)c2n1` [Compound 110, 6-[[5-[7-(1-Hydroxy-1-methyl-ethyl)-2-methyl-indazol-4-yl]pyrimidin-2-yl]methyl]-7H-pyrrolo[3,4-b]pyridin-5-one], the “Agonist Activity Human M1 EC50” value [1] was “inactive”, the Emax [2] was 43% and the EC50 [2] was at least 10000 nM.

With `Cn1cc2c(-c3ncc(CN4Cc5ncccc5C4=O)cn3)ccc(C(C)(C)O)c2n1` [Compound 111, 6-((2-(7-(2-hydroxypropan-2-yl)-2-methyl-2H-indazol-4-yl)pyrimidin-5-yl)methyl)-6,7-dihydro-5H-pyrrolo[3,4-b]pyridin-5-one] the “Agonist Activity Human M1 EC50” value [1] was “inactive”, the Emax [2] was 47% and the EC50 [2] was at least 10000 nM.

`Cn1cc2c(-c3ccc(CN4Cc5ncccc5C4=O)nn3)ccc(C(C)(C)O)c2n1` [Compound 112, 6-((6-(7-(2-hydroxypropan-2-yl)-2-methyl-2H-indazol-4-yl)pyridazin-3-yl)methyl)-6,7-dihydro-5H-pyrrolo[3,4-b]pyridin-5-one] was tested, and the “Agonist Activity Human M1 EC50” value [1] was “inactive”, the Emax [2] was 27% and the EC50 [2] was at least 10000 nM.

In the case of `Cn1cc2c(-c3cc(F)c(CN4Cc5ncccc5C4=O)c(F)c3)ccc(C3(O)CN(C(=O)OC(C)(C)C)C3)c2n1` [Compound 113, tert-butyl 3-(4-(3,5-difluoro-4-((5-oxo-5,7-dihydro-6H-pyrrolo[3,4-b]pyridin-6-yl)methyl)phenyl)-2-methyl-2H-indazol-7-yl)-3-hydroxyazetidine-1-carboxylate], the EC50 [1] is reported as at least 10000 nM, the Emax [1] is reported as 13% and the Emax [2] is reported as 76%. The EC50 [2] was 856 nM.

With `Cn1cc2c(-c3cc(F)c(CN4Cc5ncccc5C4=O)c(F)c3)ccc(C3(O)CNC3)c2n1` [Compound 114, 6-(2,6-Difluoro-4-(7-(3-hydroxyazetidin-3-yl)-2-methyl-2H-indazol-4-yl)benzyl)-6,7-dihydro-5H-pyrrolo[3,4-b]pyridin-5-one] the “Agonist Activity Human M1 EC50” value [1] was “inactive”, the Emax [2] was 56% and the EC50 [2] was at least 10000 nM.

For `Cc1nc2c(-c3cc(F)c(CN4Cc5ncccc5C4=O)c(F)c3)ccc(C(C)(C)O)n2n1` [Compound 115, 6-(2,6-difluoro-4-(5-(2-hydroxypropan-2-yl)-2-methyl-[1,2,4]triazolo[1,5-a]pyridin-8-yl)benzyl)-6,7-dihydro-5H-pyrrolo[3,4-b]pyridin-5-one], the EC50 [1] was 8000 nM, the Emax [1] was 29% and the Emax [2] was 89%. The EC50 [2] was 531 nM.

`COc1cc(-c2ccc(C(C)(C)O)c3nn(C)cc23)cc(F)c1CN1Cc2cccnc2C1=O` [Compound 116, 6-(2-fluoro-4-(7-(2-hydroxypropan-2-yl)-2-methyl-2H-indazol-4-yl)-6-methoxybenzyl)-5,6-dihydro-7H-pyrrolo[3,4-b]pyridin-7-one] showed an EC50 [1] of at least 10000 nM, an Emax [1] of 17% and an Emax [2] of 88%. For the same compound, the EC50 [2] was 233 nM.

`CC(C)(O)c1ccc(-c2cc(F)c(CN3Cc4cccnc4C3=O)c(F)c2)cc1` [Compound 117, 6-((3,5-difluoro-4′-(2-hydroxypropan-2-yl)-[1,1′-biphenyl]-4-yl)methyl)-5,6-dihydro-7H-pyrrolo[3,4-b]pyridin-7-one] was tested, and the “Agonist Activity Human M1 EC50” value [1] was “inactive”, the Emax [2] was 68% and the EC50 [2] was 1450 nM.
